Test results taken from ChEMBL document CHEMBL1201862, “PubChem BioAssay data set” (2004).
“And” between values parts separate entries of the source, which are not always exact repeats. Identical values can stand only once.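 Where inhibition never reached the appropriate level, the endpoint shown equals the highest concentration tested. Otherwise, values were interpolated linearly from a five-concentration, 48-hour dose response in 96-well plates. Here, GI50 denotes the concentration required for 50% inhibition of growth.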 The source made the active and inactive calls. No stated cut-off is given here; in the data, active = GI50 up to about 1.1 µM and inactive = higher.

Columns and labels:
Assay in all cases: inhibition of tumour cell growth, NCI panel, 48 h
A498 = tested on: A498
RPMI-8226 = tested on: RPMI-8226
MCF7 = tested on: MCF7
OVCAR-3 = tested on: OVCAR-3
HCT-15 = tested on: HCT-15
NCI-H23 = tested on: NCI-H23
HOP-62 = tested on: HOP-62
HL-60 = tested on: HL-60
RXF 393 = tested on: RXF 393
SNB-19 = tested on: SNB-19
NCI-H522 = tested on: NCI-H522
SF-268 = tested on: SF-268
XF498 = tested on: XF498
786-0 = tested on: 786-0
OVCAR-5 = tested on: OVCAR-5
UO-31 = tested on: UO-31
Malme-3M = tested on: Malme-3M
LOX IMVI = tested on: LOX IMVI
BT-549 = tested on: BT-549
MDA-N = tested on: MDA-N

SMILES	GI50 (A498)	GI50 (RPMI-8226)	GI50 (MCF7)	GI50 (OVCAR-3)	GI50 (HCT-15) [µM]	GI50 (NCI-H23)	GI50 (HOP-62)	GI50 (HL-60)	GI50 (RXF 393)	GI50 (SNB-19)	GI50 (NCI-H522)	GI50 (SF-268)	GI50 (XF498)	GI50 (786-0)	GI50 (OVCAR-5)	GI50 (UO-31)	GI50 (Malme-3M)	GI50 (LOX IMVI)	GI50 (BT-549)	GI50 (MDA-N)
COc1ccc2cc1Oc1ccc(cc1)C[C@H]1c3cc(c(OC)cc3CCN1C)Oc1c(OC)c(OC)cc3c1[C@H](C2)N(C)CC3 [FANCHININ]	7.33 µM (inactive) and 60.5 µM (inactive)	4.44 µM (inactive)	82 µM (inactive) and 6.43 µM (inactive)	7.46 µM (inactive)	7.78	77.4 µM (inactive) and 8.43 µM (inactive)	5.94 µM (inactive)	7.8 µM (inactive) and 99.5 µM (inactive)	5.08 µM (inactive)	17.4 µM (inactive) and 6.61 µM (inactive)	34.8 µM (inactive) and 6.61 µM (inactive)	74.6 µM (inactive) and 8.05 µM (inactive)	10.6 µM (inactive)	3.05 µM (inactive) and 43.5 µM (inactive)	–	–	–	–	–	–
COC(=O)C(=Cc1cc(OC)ccc1OC)C(=O)OC	–	25.9 µM (inactive)	–	21.2 µM (inactive)	25.2	–	27.5 µM (inactive)	21.8 µM (inactive)	16 µM (inactive)	44 µM (inactive)	15.1 µM (inactive)	34.2 µM (inactive)	25.5 µM (inactive)	23.4 µM (inactive)	28.2 µM (inactive)	23 µM (inactive)	26.9 µM (inactive)	18.2 µM (inactive)	–	–
O=C1CCC2(c3ccccc3)Nc3ccccc3N12 (stereo not drawn)	> 100 µM (inactive)	> 100 µM (inactive)	–	> 100 µM (inactive)	> 100	> 100 µM (inactive)	> 100 µM (inactive)	> 100 µM (inactive)	> 100 µM (inactive)	–	> 100 µM (inactive)	> 100 µM (inactive)	> 100 µM (inactive)	> 100 µM (inactive)	> 100 µM (inactive)	> 100 µM (inactive)	> 100 µM (inactive)	> 100 µM (inactive)	–	–
C[C@]12Cc3cn[nH]c3C(=O)C1CC[C@@H]1C2CC[C@@]2(C)C1CC[C@@H]2O (stereo partly drawn)	> 100 µM (inactive)	> 100 µM (inactive)	–	> 100 µM (inactive)	> 100	> 100 µM (inactive)	> 100 µM (inactive)	> 100 µM (inactive)	> 100 µM (inactive)	> 100 µM (inactive)	> 100 µM (inactive)	> 100 µM (inactive)	> 100 µM (inactive)	> 100 µM (inactive)	> 100 µM (inactive)	> 100 µM (inactive)	> 100 µM (inactive)	> 100 µM (inactive)	–	–
CC1(C)SCc2nc3ncccc3n21	> 100 µM (inactive)	> 100 µM (inactive)	–	> 100 µM (inactive)	> 100	> 100 µM (inactive)	> 100 µM (inactive)	> 100 µM (inactive)	> 100 µM (inactive)	–	> 100 µM (inactive)	> 100 µM (inactive)	> 100 µM (inactive)	> 100 µM (inactive)	> 100 µM (inactive)	> 100 µM (inactive)	> 100 µM (inactive)	> 100 µM (inactive)	–	–
CCOC(OCC)C(CC)[Se]c1ccccc1 (stereo not drawn)	> 100 µM (inactive)	18.3 µM (inactive)	–	> 100 µM (inactive)	15.5	7.13 µM (inactive)	> 100 µM (inactive)	2.42 µM (inactive)	55.2 µM (inactive)	> 100 µM (inactive)	15.6 µM (inactive)	72.6 µM (inactive)	> 100 µM (inactive)	19.1 µM (inactive)	> 100 µM (inactive)	> 100 µM (inactive)	5.02 µM (inactive)	5.82 µM (inactive)	–	–
CCN(CC)Cc1cc(Nc2c3ccccc3nc3c4ccccc4n(C)c23)ccc1O	13.7 µM (inactive)	3.67 µM (inactive)	–	–	8.85	15.1 µM (inactive)	12 µM (inactive)	3.46 µM (inactive)	11.3 µM (inactive)	16.7 µM (inactive)	2.58 µM (inactive)	16.6 µM (inactive)	4.84 µM (inactive)	3.76 µM (inactive)	10.1 µM (inactive)	9.95 µM (inactive)	13.7 µM (inactive)	2.83 µM (inactive)	–	–
COC(=O)[C@@]12C=CC(=O)[C@H]3C[C@@H](C(C(C)C)C1)[C@]32OC (stereo partly drawn)	> 100 µM (inactive)	> 100 µM (inactive)	–	> 100 µM (inactive)	> 100	> 100 µM (inactive)	> 100 µM (inactive)	> 100 µM (inactive)	> 100 µM (inactive)	> 100 µM (inactive)	–	> 100 µM (inactive)	> 100 µM (inactive)	> 100 µM (inactive)	> 100 µM (inactive)	–	> 100 µM (inactive)	–	–	–
CCCCCCCCCCCCCCCCCCOCC1(COP(=O)([O-])OCC[N+](C)(C)C)CCCO1 (stereo not drawn)	3.46 µM (inactive)	2.79 µM (inactive)	–	4.22 µM (inactive)	–	16.8 µM (inactive)	2.99 µM (inactive)	2.18 µM (inactive)	0.393 µM (active)	3.7 µM (inactive)	1.96 µM (inactive)	5.87 µM (inactive)	7.64 µM (inactive)	3.73 µM (inactive)	12.4 µM (inactive)	10.2 µM (inactive)	13.3 µM (inactive)	6.43 µM (inactive)	–	–
Cn1c(=O)nc2n(-c3ccc(Cl)cc3)c3cc(Cl)ccc3nc-2c1=O	14.3 µM (inactive)	3.79 µM (inactive)	577 nM (active)	1.95 µM (inactive)	1.82	3.33 µM (inactive)	18.1 µM (inactive)	2.06 µM (inactive)	4.45 µM (inactive)	14.3 µM (inactive)	2.99 µM (inactive)	3.08 µM (inactive)	1.41 µM (inactive)	10.5 µM (inactive)	15 µM (inactive)	11.4 µM (inactive)	1.89 µM (inactive)	2.03 µM (inactive)	4.12 µM (inactive)	1.48 µM (inactive)
CC(N)C(=O)OCN1C(=O)C2C3C=CC(C2C1=O)C1C2C(=O)N(COC(=O)C(C)N)C(=O)C2C31 (stereo not drawn)	–	23.9 µM (inactive)	–	33.6 µM (inactive)	19.9	22.1 µM (inactive)	> 100 µM (inactive)	29.8 µM (inactive)	22.2 µM (inactive)	52.2 µM (inactive)	–	21.3 µM (inactive)	19 µM (inactive)	20.8 µM (inactive)	47.8 µM (inactive)	56.4 µM (inactive)	–	18.5 µM (inactive)	–	–
OCCCCCCOc1ccc(-c2cc(-c3ccccn3)nc(-c3ccccn3)c2)cc1	1.11 µM (active)	0.134 µM (active)	32.1 nM (active)	0.22 µM (active)	0.109	0.604 µM (active)	0.172 µM (active)	0.0853 µM (active)	0.239 µM (active)	0.158 µM (active)	0.536 µM (active)	0.0668 µM (active)	1.51 µM (inactive)	0.0944 µM (active)	0.489 µM (active)	0.202 µM (active)	0.404 µM (active)	0.117 µM (active)	0.149 µM (active)	0.526 µM (active)
O=c1[nH]ccc(CNC23CC4CC(CC(C4)C2)C3)c1O	> 100 µM (inactive)	> 100 µM (inactive)	–	> 100 µM (inactive)	41.8	> 100 µM (inactive)	> 100 µM (inactive)	41.3 µM (inactive)	48.4 µM (inactive)	> 100 µM (inactive)	24.8 µM (inactive)	–	> 100 µM (inactive)	> 100 µM (inactive)	> 100 µM (inactive)	88.3 µM (inactive)	> 100 µM (inactive)	–	–	–
CCc1nc(N)nc(N)c1-c1ccc(Cl)c(N=[N+]=[N-])c1	16.5 µM (inactive)	12.1 µM (inactive)	7240 nM (inactive)	13.4 µM (inactive)	–	4.23 µM (inactive)	9.53 µM (inactive)	–	–	–	7.06 µM (inactive)	6.4 µM (inactive)	31 µM (inactive)	3.8 µM (inactive)	21.8 µM (inactive)	–	–	3.26 µM (inactive)	–	–
C[C@]12CCC[C@H](O)[C@H]1C[C@H](CO)CC2	> 100 µM (inactive)	> 100 µM (inactive)	–	> 100 µM (inactive)	> 100	> 100 µM (inactive)	> 100 µM (inactive)	> 100 µM (inactive)	–	> 100 µM (inactive)	> 100 µM (inactive)	> 100 µM (inactive)	> 100 µM (inactive)	> 100 µM (inactive)	> 100 µM (inactive)	> 100 µM (inactive)	> 100 µM (inactive)	> 100 µM (inactive)	–	–
COC1C(N)C(OC2C(Oc3cccc4c(O)c5c(=O)oc6ccc(C)c7c(=O)oc(c34)c5c67)OC(C)C(O)C2(C)O)OC(C)C1O (stereo not drawn)	< 0.01 µM (active)	< 0.01 µM (active)	< 10 nM (active)	0.108 µM (active)	0.0925	0.0269 µM (active)	0.0428 µM (active)	0.0416 µM (active)	< 0.0184 µM (active)	0.0186 µM (active)	< 0.01 µM (active)	< 0.0119 µM (active)	< 0.0116 µM (active)	< 0.0123 µM (active)	0.27 µM (active)	0.0746 µM (active)	< 0.0107 µM (active)	< 0.0125 µM (active)	0.0192 µM (active)	0.0743 µM (active)
